Molecules are shown by their SMILES. pIC50, pKi: −log10 of the molar value.

Usually pIC50 stands for −log10 of the IC50, conventionally taken in molar units. The low end stands for a large IC50, the high end for a small IC50. For orientation: pKi means the Ki on a negative log10 scale, so that one unit is a factor of ten.

Assay [1] has as its target T1, Brain/CB1 (Mus musculus, UniProt P47746).
T1 construct: from tissue; host or cells: mouse brain membranes
The assay can be described thus: Functional GTPγS binding, Brain/CB1. It is filed as biochemical. The source says: Furthermore, the intermediates urea compounds 8a-m were chlorinated with phosphorus oxychloride in the presence of DIPEA base to form imidoyl chloride intermediate and reacted with acetamidine hydrochloride/methyl carbamimidothioate iodide/methyl carbamimidoselenoate iodide and other amines to furnish the target compounds (10a-34b) (Scheme 2, FIG. 2, Scheme 5, FIG. 5). The urea derivatives were converted to the thiourea derivatives 9a-9d by employing sodium thiosulfate. Compound 8a-b, 8e-f were converted to corresponding thiourea by employing sodium thiosulfate dissolved in water dioxane mixture and the reaction was heated to 85° C. for 2 h. […] The binding constant for the synthesized compounds were determined by using radioligand binding assay in mouse brain membranes as well as the target compounds were evaluated in vitro at the human CB1 receptor, stably expressed into Chinese hamster ovary (CHO) cells as well as mouse brain membrane CB1.

In assay [2] the target is CB1 (UniProt P21554). The experiment in a line: CB1 radioligand binding assay. The settings on record: read-out: Ki (CB1). More on the design: species or system human. As for the experimental part: The target compounds were evaluated in vitro at the human CB1 receptor, stably expressed into Chinese hamster ovary (CHO) cells by utilizing radioligand binding studies.
The binding constant for the synthesized compounds were determined by using radioligand binding assay in mouse brain membranes as well as the target compounds were evaluated in vitro at the human CB1 receptor, stably expressed into Chinese hamster ovary (CHO) cells as well as mouse brain membrane CB1. […]

T1 sequence (P47746 whole entry): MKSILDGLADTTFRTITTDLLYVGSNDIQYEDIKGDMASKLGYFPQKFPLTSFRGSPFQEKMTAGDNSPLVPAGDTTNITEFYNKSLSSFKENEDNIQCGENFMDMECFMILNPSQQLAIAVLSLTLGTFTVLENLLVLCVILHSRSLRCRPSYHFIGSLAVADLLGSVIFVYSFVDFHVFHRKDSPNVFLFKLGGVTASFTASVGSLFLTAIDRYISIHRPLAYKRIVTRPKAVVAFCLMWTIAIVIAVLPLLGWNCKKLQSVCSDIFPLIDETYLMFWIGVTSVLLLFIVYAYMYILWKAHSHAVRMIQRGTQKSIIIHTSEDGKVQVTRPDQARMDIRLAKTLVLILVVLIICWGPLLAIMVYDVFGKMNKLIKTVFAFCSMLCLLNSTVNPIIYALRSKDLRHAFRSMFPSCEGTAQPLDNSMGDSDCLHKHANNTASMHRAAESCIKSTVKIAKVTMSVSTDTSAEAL

Take `C/C(N)=N\C(=N\S(=O)(=O)c1ccc(C(F)(F)F)cc1)N1CCC(c2ccccc2)C(c2ccc(Cl)cc2)=N1` (single isomer, unassigned) [Compound 10bE1, (Z)—N—((E)-1-aminoethylidene)-3-(4-chlorophenyl)-4-phenyl-N′-((4-(trifluoromethyl)phenyl)sulfonyl)-5,6-dihydropyridazine-1 (4H)-carboximidamide]: the pIC50 in assay [1] is under 6.00.
The same measure, in the same setting: next, `C/C(N)=N\C(=N\S(=O)(=O)c1ccc(C(F)(F)F)cc1)N1CCC(c2ccccc2)C(c2ccc(Cl)cc2)=N1` (single isomer, unassigned) [Compound 10bE2, (Z)—N—((E)-1-aminoethylidene)-3-(4-chlorophenyl)-4-phenyl-N′-((4-(trifluoromethyl)phenyl)sulfonyl)-5,6-dihydropyridazine-1 (4H)-carboximidamide]: 7.47.
As to `CC(C)(C)/C(N)=N/C(=N/S(=O)(=O)c1ccc(C(F)(F)F)cc1)N1CCC(c2ccccc2)C(c2ccc(Cl)cc2)=N1` (single isomer, unassigned) [Compound 10oE1, (Z)—N—((Z)-1-amino-2,2-dimethylpropylidene)-3-(4-chlorophenyl)-4-phenyl-N′-((4-(trifluoromethyl)phenyl)sulfonyl)-5,6-dihydropyridazine-1 (4H)-carboximidamide], in assay [2], the pKi is 6.45. The same compound gave a pIC50 in assay [1] of 6.65.
As for `CC(C)(C)/C(N)=N/C(=N/S(=O)(=O)c1ccc(C(F)(F)F)cc1)N1CCC(c2ccccc2)C(c2ccc(Cl)cc2)=N1` (single isomer, unassigned) [Compound 10oE2, (Z)—N—((Z)-1-amino-2,2-dimethylpropylidene)-3-(4-chlorophenyl)-4-phenyl-N′-((4-(trifluoromethyl)phenyl)sulfonyl)-5,6-dihydropyridazine-1 (4H)-carboximidamide], the pKi in assay [2] is 8.14. In assay [1], this compound gave a pIC50 of 7.96.
In turn, `N/C(=N\C(=N\S(=O)(=O)c1ccc(C(F)(F)F)cc1)N1CCC(c2ccccc2)C(c2ccc(Cl)cc2)=N1)c1ccccc1F` (single isomer, unassigned) [Compound 10tE1, (Z)—N—((Z)-amino (2-fluorophenyl)methylene)-3-(4-chlorophenyl)-4-phenyl-N′-((4-(trifluoromethyl)phenyl)sulfonyl)-5,6-dihydropyridazine-1 (4H)-carboximidamide] gave a pIC50 in assay [1] of 7.29.
Consider `N/C(=N\C(=N\S(=O)(=O)c1ccc(C(F)(F)F)cc1)N1CCC(c2ccccc2)C(c2ccc(Cl)cc2)=N1)c1ccccc1F` (single isomer, unassigned) [Compound 10tE2, (Z)—N—((Z)-amino (2-fluorophenyl)methylene)-3-(4-chlorophenyl)-4-phenyl-N′-((4-(trifluoromethyl)phenyl)sulfonyl)-5,6-dihydropyridazine-1 (4H)-carboximidamide], for which the pIC50 in assay [1] was 7.74.
On to `N/C(=N\C(=N\S(=O)(=O)c1ccc(C(F)(F)F)cc1)N1CCC(c2ccccc2)C(c2ccc(Cl)cc2)=N1)c1ccccn1` (single isomer, unassigned) [Compound 10vE1, (Z)—N—((Z)-amino (pyridin-2-yl)methylene)-3-(4-chlorophenyl)-4-phenyl-N′-((4-(trifluoromethyl)phenyl)sulfonyl)-5,6-dihydropyridazine-1 (4H)-carboximidamide], for which, in assay [2], the pKi is 7.94. For the same compound, the pIC50 in assay [1] is 6.97.
On the same counts, the results for `N/C(=N\C(=N\S(=O)(=O)c1ccc(C(F)(F)F)cc1)N1CCC(c2ccccc2)C(c2ccc(Cl)cc2)=N1)c1ccccn1` (single isomer, unassigned) [Compound 10vE2, (Z)—N—((Z)-amino (pyridin-2-yl)methylene)-3-(4-chlorophenyl)-4-phenyl-N′-((4-(trifluoromethyl)phenyl)sulfonyl)-5,6-dihydropyridazine-1 (4H)-carboximidamide] are 8.30 and 7.62.
As for `CC(C)C(N/C(=N/S(=O)(=O)c1ccc(C(F)(F)F)cc1)N1CCC(c2ccccc2)C(c2ccc(Br)cc2)=N1)C(N)=O` (single isomer, unassigned) [Compound 26a, (Z)-2-(3-(4-bromophenyl)-4-phenyl-N′-((4-(trifluoromethyl)phenyl)sulfonyl)-1,4,5,6-tetrahydropyridazine-1-carboximidamido)-3-methylbutanamide], the pIC50 in assay [1] was under 6.00.
Still for that read-out and setting: next, `CC(C)C(N/C(=N/S(=O)(=O)c1ccc(C(F)(F)F)cc1)N1CCC(c2ccccc2)C(c2ccc(Br)cc2)=N1)C(N)=O` (single isomer, unassigned) [Compound 26b, (Z)-2-(3-(4-bromophenyl)-4-phenyl-N′-((4-(trifluoromethyl)phenyl)sulfonyl)-1,4,5,6-tetrahydropyridazine-1-carboximidamido)-3-methylbutanamide]: 8.02; `COc1ccc(S(=O)(=O)/N=C(/NC(C(N)=O)C(C)C)N2CCC(c3ccccc3)C(c3ccc(Cl)cc3)=N2)cc1` (single isomer, unassigned) [Compound 27a, (Z)-2-(3-(4-chlorophenyl)-N′-((4-methoxyphenyl)sulfonyl)-4-phenyl-1,4,5,6-tetrahydropyridazine-1-carboximidamido)-3-methylbutanamide]: under 6.00; `COc1ccc(S(=O)(=O)/N=C(/NC(C(N)=O)C(C)C)N2CCC(c3ccccc3)C(c3ccc(Cl)cc3)=N2)cc1` (single isomer, unassigned) [Compound 27b, (Z)-2-(3-(4-chlorophenyl)-N′-((4-methoxyphenyl)sulfonyl)-4-phenyl-1,4,5,6-tetrahydropyridazine-1-carboximidamido)-3-methylbutanamide]: 7.29.
Compound `CC(C)C(N/C(=N/S(=O)(=O)c1ccccc1)N1CCC(c2ccccc2)C(c2ccc(Cl)cc2)=N1)C(N)=O` (single isomer, unassigned) [Compound 28a, (Z)-2-(3-(4-chlorophenyl)-4-phenyl-N′-(phenylsulfonyl)-1,4,5,6-tetrahydropyridazine-1-carboximidamido)-3-methylbutanamide] gave a pIC50 in assay [1] of under 6.00.
Turning to `CC(C)C(N/C(=N/S(=O)(=O)c1ccccc1)N1CCC(c2ccccc2)C(c2ccc(Cl)cc2)=N1)C(N)=O` (single isomer, unassigned) [Compound 28b, (Z)-2-(3-(4-chlorophenyl)-4-phenyl-N′-(phenylsulfonyl)-1,4,5,6-tetrahydropyridazine-1-carboximidamido)-3-methylbutanamide], in assay [1], the pIC50 was 6.47.
As to `CC(C)C(N/C(=N/S(=O)(=O)c1ccc(Cl)cc1)N1CCC(c2ccccc2)C(c2ccc(Cl)cc2)=N1)C(N)=O` (single isomer, unassigned) [Compound 30a, (Z)-2-(3-(4-chlorophenyl)-N′-((4-chlorophenyl)sulfonyl)-4-phenyl-1,4,5,6-tetrahydropyridazine-1-carboximidamido)-3-methylbutanamide], the pKi in assay [2] is 6.04. Further, the negative logarithm of the IC50 (pIC50) in assay [1] was under 6.00.
As for `CC(C)C(N/C(=N/S(=O)(=O)c1ccc(Cl)cc1)N1CCC(c2ccccc2)C(c2ccc(Cl)cc2)=N1)C(N)=O` (single isomer, unassigned) [Compound 30b, (Z)-2-(3-(4-chlorophenyl)-N′-((4-chlorophenyl)sulfonyl)-4-phenyl-1,4,5,6-tetrahydropyridazine-1-carboximidamido)-3-methylbutanamide], in assay [2], the pKi was 7.74. The compound further showed a pIC50 in assay [1] of 7.41.
The corresponding values for `CC(N/C(=N/S(=O)(=O)c1ccc(C(F)(F)F)cc1)N1CCC(c2ccccc2)C(c2ccc(Cl)cc2)=N1)C(N)=O` (single isomer, unassigned) [Compound 31a, (Z)-2-(3-(4-chlorophenyl)-4-phenyl-N′-((4-(trifluoromethyl)phenyl)sulfonyl)-1,4,5,6-tetrahydropyridazine-1-carboximidamido) propenamide] are 7.01 and 6.06.
The corresponding values for `CC(N/C(=N/S(=O)(=O)c1ccc(C(F)(F)F)cc1)N1CCC(c2ccccc2)C(c2ccc(Cl)cc2)=N1)C(N)=O` (single isomer, unassigned) [Compound 31b, (Z)-2-(3-(4-chlorophenyl)-4-phenyl-N′-((4-(trifluoromethyl)phenyl)sulfonyl)-1,4,5,6-tetrahydropyridazine-1-carboximidamido) propenamide] are 8.09 and 7.48.
On the same counts, the results for `CCC(N/C(=N/S(=O)(=O)c1ccc(C(F)(F)F)cc1)N1CCC(c2ccccc2)C(c2ccc(Cl)cc2)=N1)C(N)=O` (single isomer, unassigned) [Compound 32b, (Z)-2-(3-(4-chlorophenyl)-4-phenyl-N′-((4-(trifluoromethyl)phenyl)sulfonyl)-1,4,5,6-tetrahydropyridazine-1-carboximidamido) butanamide] are 7.11 and 6.76.
For `NC(=O)C(Cc1ccccc1)N/C(=N/S(=O)(=O)c1ccc(C(F)(F)F)cc1)N1CCC(c2ccccc2)C(c2ccc(Cl)cc2)=N1` (single isomer, unassigned) [Compound 33a, (Z)-2-(3-(4-chlorophenyl)-4-phenyl-N′-((4-(trifluoromethyl)phenyl)sulfonyl)-1,4,5,6-tetrahydropyridazine-1-carboximidamido)-3-phenylpropanamide], in assay [2], the pKi is 7.18. The compound also had a pIC50 in assay [1] of 6.37.

Values taken from patent US20250197359A1, “CANNABINOID RECEPTOR MODULATING COMPOUNDS” (The U.S.A., as Represented by the Secretary, Department of …, priority 2022, published 2025).
